Km data for 6 compounds are collected here from paper PMC4399389, “Identification of a laccase Glac15 from Ganoderma lucidum 77002 and its application in bioethanol production” (Biotechnology for Biofuels, 2015).

Holding throughout (test): oxidation, absorbance at […] nm
What all share (type): biochemical, Ganoderma lucidum

Test [1] has as its system T1, Glac15 (laccase, isoenzyme from G. lucidum 77002).
T1 construct: native secreted enzyme purified from culture filtrate (ultrafiltration, DEAE-Sepharose FF); signal peptide of 21 residues removed; N-terminus GIGPTTDLTISNADI; tryptic peptides matched Glac6 and Glac15 of strain Xiangnong No.1
The following applies: optimum pH 4.5; 50 mM citrate-phosphate buffer; optimal temperature 50 °C; O2 as co-substrate.

For test [2] the test system is unchanged. The following applies: optimum pH 4.5; 50 mM citrate-phosphate buffer; optimal temperature 45 °C; O2 as co-substrate.
Test [3] has the same test system. The following applies: optimum pH 2.5; 50 mM citrate-phosphate buffer; optimal temperature 50 °C; O2 as co-substrate.
The test system is the same in test [4]. The following applies: optimum pH 4.5; 50 mM citrate-phosphate buffer; optimal temperature 45 °C; O2 as co-substrate. This is another data set of the same source.
The test system is the same in test [5]. The following applies: optimum pH 5.0; 50 mM citrate-phosphate buffer; optimal temperature 55 °C; O2 as co-substrate.
For test [6] the test system is unchanged. The following applies: optimum pH 5.0; 50 mM citrate-phosphate buffer; optimal temperature 45 °C; O2 as co-substrate.

Take `N[C@@H](Cc1ccc(O)c(O)c1)C(=O)O` [L-dopamine]: the Km in test [1] came to 890 µM.

With `COc1cccc(OC)c1O` [2,6-DMP, 2,6-dimethoxyphenol], in test [2], the Km was determined as 120 µM.

In the case of `CCn1c(=NN=c2sc3cc(S(=O)(=O)O)ccc3n2CC)sc2cc(S(=O)(=O)O)ccc21` [ABTS, 2,2′-azino-bis-(3-ethylbenzothiazoline-6-sulfonic acid)], in test [3], the Michaelis constant (Km) was 19 µM.

`COc1cc(C=NN=Cc2cc(OC)c(O)c(OC)c2)cc(OC)c1O` [Syringaldazine]: the Km in test [4] stood at 62 µM. In the case of `COc1ccccc1O` [Guaiacol], the Km in test [5] is 790 µM.

Turning to `Oc1ccccc1O` [Catechol], the Michaelis-Menten constant (Km) in test [6] came to 780 µM.

By Km is commonly meant the substrate concentration at which the rate is half of its maximum.
